Counter-ions that a name gives are not always drawn.
How the values were obtained:
AD38 cells = experiment: Viability of AD38 cells (Promega CellTiter-Glo); assay type: cell-based; details: 10 μM compound, 6 days, CellTiter-Glo luminescence normalized to DMSO control (100%)
Outline: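 After 6 days of compound exposure at 37° C (compound added as 10× solution in 10% DMSO; 50,000 cells/well, collagen-coated), medium was replaced with tetracycline-free DMEM/F12, 2% FBS, 1% DMSO. CellTiter-Glo luminescence was then recorded and normalized to DMSO-treated wells as 100% viability.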

[1] = tested on: HBV viral load in AD38 cells; experiment: Viral load production in AD38 cells, quantitative PCR of the core sequence in supernatant; assay type: cell-based; details: Hepatitis B virus, 144 h, 10 μM compound, 6 days at 37° C., supernatant qPCR, relative to DMSO control; read-out: AD38 Viral Load (%) (VL with cmpd/VL in DMSO control) at 10 μM

Row | SMILES | AD38 Viability Normalized Result (cmpd/DMSO %) at 10 μM (AD38 cells) [%] | activity at 10 µM [1] [%]
1 | CN(C)CCCOc1ccc(-c2ncc(CNC(=O)c3ccc4c(c3)NC(=O)c3ccccc3S4(=O)=O)s2)cc1 [compound 1679] | 94 | 1.1
2 | O=C(NCc1cnc(-n2nccn2)s1)c1ccc2c(c1)NC(=O)c1ccccc1S2(=O)=O [compound 11048] | 103 | 1.2
3 | Cc1c(C(=O)NCc2cnc(C(F)(F)F)s2)ccc2c1NC(=O)c1ccccc1S2(=O)=O [compound 1767] | 94 | 0.5
4 | CC(C)(C)NCCCSc1ccc(-c2ncc(CNC(=O)c3ccc4c(c3)NC(=O)c3ccccc3S4(=O)=O)s2)cc1.O=C(O)C(F)(F)F [compound 11064, N-((2-(4-((3-(tert-butylamino)propyl)thio)phenyl)thiazol-5-yl)methyl)-11-oxo-10, 11-dihydrodibenzo [b, f] [1, 4] thiazepine-8-carboxamide 5,5-dioxide TFA salt] | 85 | 4.1
5 | Nc1ncc(CNC(=O)c2ccc3c(c2)NC(=O)c2ccccc2S3(=O)=O)s1 [compound 1529] | 97 | 2
6 | Cl.O=C(NCc1cnc(-c2ccc(OC[C@H]3CCCN3)cc2)s1)c1ccc2c(c1)NC(=O)c1ccccc1S2(=O)=O [compound 11104, (R)-11-oxo-N-((2-(4-(pyrrolidin-2-ylmethoxy)phenyl)thiazol-5-yl)methyl)-10, 11-dihydrodibenzo [b, f] [1, 4] thiazepine-8-carboxamide 5,5-dioxide hydrochloride] | 97 | 9.4
7 | O=C(NCc1cnc(-c2ccc(F)cc2)s1)c1ccc2c(c1)NC(=O)c1ccccc1S2 [compound 1556] | 105 | 1.6
8 | O=C(NCc1cnc(-c2ccc(O)cc2)s1)c1ccc2c(c1)NC(=O)c1ccccc1O2 [compound 1618] | 100 | 1.9
9 | O=C(NCc1cnc(-c2ccc(SCCCO)cc2)s1)c1ccc2c(c1)NC(=O)c1ccccc1S2(=O)=O [11063-A, N-((2-(4-((3-hydroxypropyl)thio)phenyl)thiazol-5-yl)methyl)-11-oxo-10, 11-dihydrodibenzo [b, f] [1, 4] thiazepine-8-carboxamide 5,5-dioxide] | 104 | 0.4
10 | CC(NC(=O)c1ccc2c(c1)NC(=O)c1ccccc1S2)c1cncs1 (racemic) [compound 1432, 11-oxo-N-(1-(thiazol-5-yl)ethyl)-10, 11-dihydrodibenzo [b, f] [1, 4] thiazepine-8-carboxamide] | 101 | 21.8
11 | CC(=O)NCCCCc1ccc(-c2ncc(CNC(=O)c3ccc4c(c3)NC(=O)c3ccccc3S4(=O)=O)s2)cc1 [compound 11057] | 101 | 1
12 | O=C(NCc1cnc(N2CCC(O)CC2)s1)c1ccc2c(c1)NC(=O)c1ccccc1S2(=O)=O [compound 1859] | 89 | 2.7
13 | Nc1ccc(-c2ncc(CNC(=O)c3ccc4c(c3)NC(=O)c3ccccc3O4)s2)cn1 [compound 1707, N-((2-(6-aminopyridin-3-yl)thiazol-5-yl)methyl)-11-oxo-10, 11-dihydrodibenzo [b, f] [1, 4] oxazepine-8-carboxamide] | 88 | 10.7
14 | O=C(NCc1cnc(-c2cnco2)s1)c1ccc2c(c1)NC(=O)c1ccccc1S2(=O)=O [compound 1957] | 94 | 1.5
15 | N#Cc1ccc(-c2ncc(CNC(=O)c3ccc4c(c3)NC(=O)c3ccccc3S4(=O)=O)s2)nc1 [compound 1881] | 108 | 0.8
16 | CN(C)C1CCN(c2ncc(CNC(=O)c3ccc4c(c3)NC(=O)c3ccccc3S4(=O)=O)s2)CC1 [compound 1636] | 95 | 76.9
17 | Nc1ccnc(-c2ncc(CNC(=O)c3ccc4c(c3)NC(=O)c3ccccc3S4(=O)=O)s2)c1 [compound 1888, N-((2-(4-aminopyridin-2-yl)thiazol-5-yl)methyl)-11-oxo-10,11-dihydrodibenzo [b, f] [1, 4] thiazepine-8-carboxamide 5,5-dioxide, TFA salt] | 100 | 1.2
18 | Cc1cc(-c2ncc(CNC(=O)c3ccc4c(c3)NC(=O)c3ccccc3O4)s2)ccc1O [compound 1736, N-((2-(4-hydroxy-3-methylphenyl)thiazol-5-yl)methyl)-11-oxo-10, 11-dihydrodibenzo [b, f] [1, 4] oxazepine-8-carboxamide] | 94 | 6.8

Row | SMILES | AD38 Viability Normalized Result (cmpd/DMSO %) at 10 μM (AD38 cells) [%] | activity at 10 µM [1] [%]
19 | O=C(NCc1cnc(-c2ccccc2)s1)c1ccc2c(c1)NC(=O)c1ccccc1S2(=O)=O [compound 1525] | 104 | 0.2
20 | C=CCN1c2ccc(C(=O)NCc3cnc(C(F)(F)F)s3)cc2NC(=O)c2ccccc21 [compound 1920] | 85 | 48.8
21 | CN(C)CCCSc1ccc(-c2ncc(CNC(=O)c3ccc4c(c3)NC(=O)c3ccccc3S4(=O)=O)s2)cc1 [compound 11006, N-((2-(4-((3-(dimethylamino)propyl)thio)phenyl)thiazol-5-yl)methyl)-11-oxo-10, 11-dihydrodibenzo [b, f] [1, 4] thiazepine-8-carboxamide 5,5-dioxide] | 97 | 1.3
22 | CC(C)N(C)CC(O)COc1ccc(-c2ncc(CNC(=O)c3ccc4c(c3)NC(=O)c3ccccc3S4(=O)=O)s2)cc1 (stereo not shown) [compound 11087] | 103 | 7.1
23 | Cc1c(C(=O)NCc2cnc(-c3ccc(C#N)cc3F)s2)ccc2c1NC(=O)c1ccccc1S2(=O)=O [compound 1971] | 87 | 7
24 | O=C(NCc1cnc(-c2ccc(OCCCN3CCOCC3)cc2)s1)c1ccc2c(c1)NC(=O)c1ccccc1S2(=O)=O [compound 1993] | 96 | 0.5
25 | CCN(CC)CCCCc1ccc(-c2ncc(CNC(=O)c3ccc4c(c3)NC(=O)c3ccccc3S4(=O)=O)s2)cc1 [compound 11053] | 104 | 3.6
26 | Cl.NCc1ccccc1-c1ncc(CNC(=O)c2ccc3c(c2)NC(=O)c2ccccc2S3(=O)=O)s1 [compound 1841, N-((2-(2-(aminomethyl)phenyl)thiazol-5-yl)methyl)-11-oxo-10, 11-dihydrodibenzo [b, f] [1, 4] thiazepine-8-carboxamide 5,5-dioxide hydrochloride] | 104 | 9.1
27 | O=C(O)c1ccc(-c2ncc(CNC(=O)c3ccc4c(c3)NC(=O)c3ccccc3S4(=O)=O)s2)cc1 [compound 1585, 4-(5-((5,5-dioxido-11-oxo-10, 11-dihydrodibenzo [b, f] [1, 4]thiazepine-8-carboxamido)methyl)thiazol-2-yl) benzoic acid] | 96 | 64.1
28 | O=C(O)COc1ccc(-c2ncc(CNC(=O)c3ccc4c(c3)NC(=O)c3ccccc3S4)s2)cc1 [compound 1607, 2-(4-(5-((11-oxo-10, 11-dihydrodibenzo [b, f] [1, 4]thiazepine-8-carboxamido)methyl)thiazol-2-yl)phenoxy) acetic acid] | 98 | 52.8
29 | O=C(O)CNc1ncc(CNC(=O)c2ccc3c(c2)NC(=O)c2ccccc2S3(=O)=O)s1 [compound 1583, (5-((5,5-dioxido-11-oxo-10, 11-dihydrodibenzo [b, f] [1, 4]thiazepine-8-carboxamido)methyl)thiazol-2-yl) glycine] | 0 | 1
30 | O=C(NCc1cnc(-c2ccc(F)cn2)s1)c1ccc2c(c1)NC(=O)c1ccccc1S2(=O)=O [compound 11040] | 104 | 1.9
31 | CN1c2ccc(C(=O)NCc3cnc(-c4ccc(O)cc4)s3)cc2NC(=O)c2ccccc21 [compound 1732] | 100 | 18.8
32 | Cl.O=C(NCc1cnc(-c2ccc(O[C@@H]3CCNC3)cc2)s1)c1ccc2c(c1)NC(=O)c1ccccc1S2(=O)=O [compound 11103, (R)-11-oxo-N-((2-(4-(pyrrolidin-3-yloxy)phenyl)thiazol-5-yl)methyl)-10, 11-dihydrodibenzo [b, f] [1, 4] thiazepine-8-carboxamide 5,5-dioxide hydrochloride] | 102 | 2.5
33 | CNc1ncc(CNC(=O)c2ccc3c(c2)NC(=O)c2ccccc2S3)s1 [compound 1424] | 97 | 0.5
34 | O=C(NCc1cnc(N2CCS(=O)(=O)CC2)s1)c1ccc2c(c1)NC(=O)c1ccccc1S2(=O)=O [compound 1860] | 98 | 7.5
35 | Cc1c(C(=O)NCc2cnc(-c3ccc(OCCCN(C)C)cc3)s2)ccc2c1NC(=O)c1ccccc1S2 [C20-01] | 98 | 1.5

— US11814376B2, “Hepatitis b core protein modulators” (Assembly Biosciences, Inc., priority 2015, dated 2023)
